The structures appear in SMILES notation.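 Method: 48-hour compound exposure of cells in 96-well plates, five concentrations, linear interpolation of endpoints. GI50 is the concentration that inhibits growth by half.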 Activity calls are given as the source filed them. Rule as the data show it: active = GI50 up to about 1.1 µM and inactive = higher.

Holding throughout (test): growth of human tumour cells (NCI), 48 h
Test [1] has as its system A498.
The test system of test [2] is ACHN.
Test [3] deals with CCRF-CEM.
Test [4] relates to COLO 205.
Test [5] concerns HCT-116.
For test [6], the system named is HOP-92.
Test [7] concerns KM12.
For test [8], the system named is MDA-MB-231.
Test [9] has as its system MDA-MB-435.
Test [10] relates to MDA-N.
Test [11] deals with MOLT-4.
For test [12], the system named is OVCAR-3.
For test [13], the system named is OVCAR-8.
Test [14] has as its system RPMI-8226.
The subject of test [15] is SK-MEL-28.
Test [16] relates to SN12C.
Test [17] deals with SNB-19.
Test [18] has as its system SW-620.
In test [19] the test system is TK-10.
Test [20] has as its system SF-539.

On to `COC(=O)CC(c1ccccc1)C(C#N)(OP1(=O)OC(c2ccccc2)C(C)N1C)c1ccccc1` (stereo not drawn), for which the GI50 in test [1] is 39.4 µM (inactive); in test [2], 39.4 µM (inactive); in [3], 37.8 µM (inactive); in test [4] it was 21.3 µM (inactive); in [5] it was 48.4 µM (inactive); in test [6], 94 µM (inactive). Also, the GI50 was 35 µM (inactive) in test [7]; > 100 µM (inactive) in test [8]; 43.4 µM (inactive) in test [9]; 54.5 µM (inactive) in [10]; 19.5 µM (inactive) in test [11]; 77.1 µM (inactive) in [12]. Moreover, the GI50 in test [13] is 48 µM (inactive); in test [14] it was 24.7 µM (inactive); in test [15] it was > 100 µM (inactive); in test [16] it was 30.1 µM (inactive); in test [17], 73.5 µM (inactive); in test [18], 62.1 µM (inactive). Also, in [19], the GI50 is > 100 µM (inactive).
For `CCOC(=O)c1cc(Br)c(-c2cc(C)co2)[nH]1`, the GI50 in test [1] was > 100 µM (inactive); in test [3], > 100 µM (inactive); in test [4], > 100 µM (inactive); in test [5], > 100 µM (inactive); in test [6] it was > 100 µM (inactive); in test [7], 73.3 µM (inactive). Moreover, the GI50 in test [8] is > 100 µM (inactive); in test [9] it was 32.9 µM (inactive); in test [10], 36.4 µM (inactive); in [11], 54.6 µM (inactive); in [12], > 100 µM (inactive); in test [13] it was > 100 µM (inactive). Also, the GI50 in test [14], in [20], in test [15], in test [16], in test [17] and in test [18] was > 100 µM (inactive) throughout.
Consider `COc1nc2c(c(=O)n1C)N=C(c1ccc(Cl)cc1)CC(c1ccccc1)N2` (stereo not drawn), for which the GI50 was 41.6 µM (inactive) in test [1]; 20.9 µM (inactive) in [2]; 27.7 µM (inactive) in [3]; 36 µM (inactive) in [4]; 22.7 µM (inactive) in test [5]; 42.8 µM (inactive) in [6]. Besides, the GI50 is 16.7 µM (inactive) in [7]; 23.3 µM (inactive) in test [8]; 39 µM (inactive) in [9]; 18.8 µM (inactive) in [10]; 17.6 µM (inactive) in test [11]; 35.1 µM (inactive) in test [12]. In addition, the GI50 in [13] was 26.8 µM (inactive); in test [14], 24 µM (inactive); in test [20], 17.7 µM (inactive); in test [15], 54.1 µM (inactive); in [16], 21.7 µM (inactive); in test [17] it was 38.8 µM (inactive). Moreover, the GI50 in [18] is 46.3 µM (inactive).
Take `CC(=O)O[C@H]1C(=O)[C@@]2(C)[C@H]([C@H](OC(=O)c3ccccc3)[C@]3(O)C[C@H](OC(=O)[C@H](O)[C@@H](NC(=O)c4ccc(N)cc4)c4ccccc4)C(C)=C1C3(C)C)[C@]1(OC(C)=O)CO[C@@H]1C[C@@H]2O`: the GI50 in test [1] is 0.0902 µM (active); in [2], 0.711 µM (active); in test [3], < 0.005 µM (active); in [4], < 0.005 µM (active); in [5], < 0.005 µM (active); in test [6], 35.1 µM (inactive). Further, the GI50 is < 0.005 µM (active) in test [7]; 0.22 µM (active) in test [8]; 0.0158 µM (active) in test [9]; < 0.005 µM (active) in test [10]; 0.0129 µM (active) in [11]; < 0.005 µM (active) in [12]. For the same compound, the GI50 in test [13] was 0.0105 µM (active); in test [14], < 0.005 µM (active); in test [20], < 0.005 µM (active); in test [15] it was > 50 µM (inactive); in test [17], 0.00675 µM (active); in [18] it was < 0.005 µM (active). In addition, in test [19], the GI50 was 0.173 µM (active).
On to `Cc1ccc2c(c1)-c1nc(N)c(C#N)c(-c3ccccc3)c1CCS2(=O)=O`, for which the GI50 in test [1] is 28.8 µM (inactive); in [2], 38.5 µM (inactive); in test [4], > 100 µM (inactive); in [5], > 100 µM (inactive); in test [6], 26.4 µM (inactive); in [7], > 100 µM (inactive). Moreover, the GI50 in test [8] is 37 µM (inactive); in [9], > 100 µM (inactive); in [10] it was > 100 µM (inactive); in test [12], 29.5 µM (inactive); in test [13], 23.1 µM (inactive); in test [14] it was > 100 µM (inactive). Also, the GI50 was > 100 µM (inactive) in [15]; 41.4 µM (inactive) in test [16]; 23.6 µM (inactive) in test [17]; > 100 µM (inactive) in [18]; 23.7 µM (inactive) in [19].
Regarding `Oc1ccc(C(c2ccc(O)cc2)c2ccc(O)cc2)cc1`, the GI50 in test [1] is 15.8 µM (inactive); in [2], 27.3 µM (inactive); in test [3] it was 33.6 µM (inactive); in test [4], 7.16 µM (inactive); in [5], 16.8 µM (inactive); in [6] it was 18.1 µM (inactive). Also, the GI50 in [7] was 16.7 µM (inactive); in test [8], 16.3 µM (inactive); in test [9], 19.7 µM (inactive); in [10] it was 25.9 µM (inactive); in test [11], 20.6 µM (inactive); in [13], 15.6 µM (inactive). The GI50 is 27.2 µM (inactive) in test [14]; 20.8 µM (inactive) in test [20]; 19.3 µM (inactive) in test [15]; 20.3 µM (inactive) in test [16]; 24.4 µM (inactive) in test [17]; 26.8 µM (inactive) in test [18]. In addition, the GI50 in test [19] is 22.8 µM (inactive).
With `COC(=O)C1CN=CN1CCc1ccccc1` (stereo not drawn), the GI50 in test [1], in [2], in test [3], in [4], in test [5] and in test [6] was > 100 µM (inactive) each time. Further, the GI50 in test [7], in test [8], in test [9], in test [10], in test [11] and in test [12] was > 100 µM (inactive) in each case. Further, the GI50 in test [13], in test [14], in test [20], in test [15], in [17] and in [18] was > 100 µM (inactive) throughout. For the same compound, in [19], the GI50 was > 100 µM (inactive).
For the compound `OCC1OC(O)C(/N=C\c2ccc3c(c2)OCO3)C(O)C1O` (stereo not drawn), the GI50 in test [1], in [2], in test [4], in test [5], in test [6] and in [7] was > 100 µM (inactive) throughout. Besides, the GI50 in test [8], in test [9], in [10], in [11], in test [12] and in test [13] was > 100 µM (inactive) each time. Also, the GI50 in test [14], in test [20], in test [15], in [17], in test [18] and in test [19] was > 100 µM (inactive) each time.
In the case of `COC(=O)/C(=N\NC(=S)NN)C(C(=O)OC)C(=O)C(=O)Nc1cccc(C(F)(F)F)c1` (stereo not drawn), the GI50 in test [1], in [2], in test [3], in test [5], in test [6] and in test [7] was > 100 µM (inactive) in each case. In addition, the GI50 in test [8], in test [9], in test [10], in test [12], in test [13] and in test [14] was > 100 µM (inactive) throughout. The GI50 in test [20] was > 100 µM (inactive); in test [15], 49.3 µM (inactive); in [16] it was > 100 µM (inactive); in test [17] it was > 100 µM (inactive); in [18], > 100 µM (inactive); in test [19], > 100 µM (inactive).
In the case of `N#Cc1c2c([nH]c(=O)c1C#N)CCCC2`, the GI50 is > 100 µM (inactive) in test [1]; > 100 µM (inactive) in [2]; > 100 µM (inactive) in [3]; > 100 µM (inactive) in test [4]; > 100 µM (inactive) in test [5]; 79.1 µM (inactive) in test [6]. Moreover, the GI50 in [7], in test [8], in [9], in [10], in test [11] and in test [12] was > 100 µM (inactive) throughout. The GI50 in test [13], in test [20], in test [15], in test [16], in test [17] and in test [18] was > 100 µM (inactive) throughout. The GI50 in [19] was > 100 µM (inactive).
Consider `CCCCCCCCCCCCP(=O)(O)OCC(N)C(=O)O` (stereo not drawn), for which the GI50 in [1] was 23.5 µM (inactive); in test [2], 40.3 µM (inactive); in test [4], 45.8 µM (inactive); in test [5] it was 13.3 µM (inactive); in test [6], 25.4 µM (inactive); in test [8], 16.4 µM (inactive). For the same compound, the GI50 in test [9] is 18.3 µM (inactive); in test [10], 21.4 µM (inactive); in test [11], 16.9 µM (inactive); in test [12], 18.7 µM (inactive); in test [13], 35.5 µM (inactive); in test [14] it was 30.9 µM (inactive). In addition, the GI50 was 20.7 µM (inactive) in [20]; 43.3 µM (inactive) in [15]; 18.9 µM (inactive) in test [16]; 16.6 µM (inactive) in test [17]; 40.3 µM (inactive) in test [18]; 33.3 µM (inactive) in test [19].

For the origin of these results see ChEMBL document CHEMBL1201862, “PubChem BioAssay data set” (2004).
